Here are results for 4 compounds from article PMC9737648, “Novel Approaches for the Solid-Phase Synthesis of Dihydroquinazoline-2(1H)-One Derivatives and Biological Evaluation as Potential Anticancer Agents” (Molecules, 2022).

Assay [1] deals with ovarian cancer cells (A2780). The experiment in a line: MTT cytotoxicity assay, A2780. The following applies: Homo sapiens, A2780, 72 h, 72-h incubation. Format: cell-based, human. The method, then: (§1) The above cells were tested for cytotoxicity to identify the most promising antitumor drug among the synthesized quinazolinone derivatives.
(§2) An MTT assay was used to evaluate the in vitro cytotoxicity of the new compounds. The MTT assay depends on the reduction of soluble 3-([…])-2,5-diphenyl-tetrazolium bromide (MTT) into a blue purple formazan product, mainly by mitochondrial reductase activity inside living cells. […] The cells were suspended in growth medium and plated in 96-well culture plates at a density of 4 × 10^4 cells/well and incubated at 37 °C in a 5% CO2 incubator. […] Each experiment was performed at least 3 times.
(Tetrazolium dyes change colour on reduction, which living cells bring about.)

Assay [2] deals with breast cancer cells (MDA-MB-231). The experiment in a line: MTT cytotoxicity assay, MDA-MB-231. Type of assay: cell-based, human. The following applies: Homo sapiens, 72-h incubation. How it is done: as §1, §2
Assay [3] concerns human hepatic stellate cells (LX-2). The experiment in a line: MTT cytotoxicity assay, LX-2 normal control. Format: cell-based. The conditions noted are these: Homo sapiens, 72-h incubation. How it is done: as §1, §2
Assay [4] in a line: DPPH• free radical scavenging assay. The following applies: concentration required to scavenge 50% of the DPPH; 30 min in the dark. How it is done:
The quinazolinone derivatives were evaluated for their free radical scavenging activity at 320, 160, 80, 40, 20, and 10 µM concentration using the DPPH radical method, with ascorbic acid as the positive control (Table 3).
The antiradical activity of the compounds was estimated according to a slight modification of the procedure reported by Morales and Jimenez-Perez. […] Each sample (100 μL) at a different concentration was added to a freshly prepared solution of 1,1-diphenyl-2-picrylhydrazyl (DPPH•) radical (0.2 mM, 100 μL). The mixtures (200 μL) were placed in a 96-well microplate, shaken vigorously, and then left to stand for 30 min in the dark. Then, absorbance was immediately measured at a wavelength of 517 nm. Vc was used as the standard. The antiradical activity for each compound was determined in the Vc equivalent antioxidant capacity. The DPPH• solution in the presence of ethanol and in the absence of compounds was tested and used as a negative control. […] In all experiments, the samples were analyzed in triplicate, and activity for each compound was presented as the mean value ± SEM and used for evaluation of structure–activity relationships. […] Absorbance was taken at 520 nm using a microplate reader (Tecan, Männedorf, Switzerland).

Assay [5] deals with human liver cancer cells (HepG-2). The experiment in a line: MTT cytotoxicity assay, HepG-2. Format: cell-based. The conditions noted are these: Homo sapiens, HepG2, 72 h, 72-h incubation. How it is done: as §1, §2

As a reminder, the IC50 is the concentration that inhibits the measured activity by half. Lower therefore signals higher potency. With `CN1C(=O)NC(CC(N)=O)c2cc(NC(=O)c3cccnc3)ccc21` (centres unmarked) [CA6-a, N-[4-(2-amino-2-oxoethyl)-1-methyl-2-oxo-1,2,3,4-tetrahydroquinazolin-6-yl]nicotinamide], the IC50 in assay [1] was above 100 µM; in assay [2], above 100 µM; in assay [3] it was above 100 µM; in assay [4], above 1000 µM; in assay [5], above 100 µM.
As to `CN1C(=O)NC(CC(N)=O)c2cc(NC(=O)COc3ccccc3)ccc21` (centres unmarked) [CA6-b, N-[4-(2-amino-2-oxoethyl)-1-methyl-2-oxo-1,2,3,4-tetrahydroquinazolin-6-yl]-2-phenoxyacetamide], the IC50 in assay [1] was above 100 µM; in assay [2], above 100 µM; in assay [3], above 100 µM; in assay [4], above 1000 µM; in assay [5], 88 ± 1.39 µM.
Take `COc1ccccc1S(=O)(=O)Nc1ccc2c(c1)C(CC(N)=O)NC(=O)N2C` (centres unmarked) [CA7-a, 2-{6-[(2-methoxyphenyl)sulfonamido]-1-methyl-2-oxo-1,2,3,4-tetrahydroquinazolin-4-yl}acetamide]: the IC50 in assay [1] is 82.9 ± 2.68 µM; in assay [2], 87.7 ± 2.58 µM; in assay [3], above 100 µM; in assay [4], above 1000 µM; in assay [5] it was 86.4 ± 3.42 µM.
On the same counts, the results for `CN1C(=O)N(S(=O)(=O)c2ccccc2F)C(CC(N)=O)c2cc(NS(=O)(=O)c3ccccc3F)ccc21` (centres unmarked) [CA7-b′, 2-{6-[(2-fluorophenyl)sulfonamido]-3-[(2-fluorophenyl)sulfonyl]-1-methyl-2-oxo-1,2,3,4-tetrahydroquinazolin-4-yl}acetamide] are above 100 µM, above 100 µM, above 100 µM, above 1000 µM and 95.3 ± 5.47 µM.
